{"source": "paper PMC9367672", "about": "“In vitro differences in toddalolactone metabolism in various species and its effect on cytochrome P450 expression” (Pharmaceutical Biology, 2022)", "key": {"[1]": {"experiment": "Metabolic stability assessment in mini pig liver microsomes", "format": "in vitro ADME", "conditions": "pH 7.4, PLMs, toddalolactone 20 μM, 0-90 min", "procedure": "(§1) The CYP reaction system (200 μL) consisted of 0.1 M potassium phosphate buffer (pH 7.4), an NADPH-generating system (1 mM NADPH, 10 mM G-6-P, 1 unit/mL G-6-PD, 4 mM MgCl2), and liver microsomes or recombinant human microsomes (supersomes). Each of the in vitro enzymatic assays using liver microsomes was linear with respect to incubation time and amount of protein. After a pre-incubation at 37 °C for 3 min, the reactions were initiated by adding NADP^+. After incubating for 60 min, the reactions were quenched by adding 200 μL of ice-cold acetonitrile. Samples were centrifuged at 18,000 g for 15 min at 4 °C and 10 μL of supernatant was analyzed using an HPLC system. […]\n(§2) In the UGT reaction system, liver microsomes were incubated in 200 μL of the reaction system containing 4 mM UDPGA, 5 mM MgCl2, 20 µg/mL alamethicin, and 50 mM Tris-HCl buffer (pH 7.4). […] After centrifugation at 18,000 g for 15 min, 10 μL of the supernatant was analyzed by HPLC.\n(§3) Toddalolactone (20 μM) was incubated with different liver microsomes, including HLMs, DLMs, PLMs, MLMs, RAMs, RLMs or MIMs in oxidative metabolism and glucuronidation reaction systems. […] The mixtures were centrifuged at 18,000 g for 15 min at 4 °C and then 10 μL of the supernatant was analyzed by HPLC. […]\n(§4) The peak areas of toddalolactone and its metabolites were detected using a HPLC system (Shimadzu, Kyoto, Japan). […]"}, "other rhCYP isoforms": {"system": "other rhCYP isoforms", "experiment": "Reaction phenotyping with the other recombinant human CYP isoforms", "format": "in vitro ADME", "conditions": "other rhCYP isoforms (of thirteen), 15 nM, 37 °C, 60 min", "procedure": "The CYP reaction system (200 μL) consisted of 0.1 M potassium phosphate buffer (pH 7.4), an NADPH-generating system (1 mM NADPH, 10 mM G-6-P, 1 unit/mL G-6-PD, 4 mM MgCl2), and liver microsomes or recombinant human microsomes (supersomes). Each of the in vitro enzymatic assays using liver microsomes was linear with respect to incubation time and amount of protein. After a pre-incubation at 37 °C for 3 min, the reactions were initiated by adding NADP^+. After incubating for 60 min, the reactions were quenched by adding 200 μL of ice-cold acetonitrile. Samples were centrifuged at 18,000 g for 15 min at 4 °C and 10 μL of supernatant was analyzed using an HPLC system. NADPH or CYP enzyme sources were not used in the control group to ensure that the metabolic reactions were CYP- and NADPH-dependent. All incubation assays were completed in triplicate. The data are presented as mean ± standard deviation (SD).\nThirteen cDNA-expressed human CYP isoforms (CYP1A1, CYP1A2, CYP2A6, CYP2B6, CYP2C8, CYP3A4, CYP2C19, CYP3A5, CYP1B1, CYP2C9, CYP2D6, CYP2E1 and CYP4F2) were used to identify the isoform(s) involved in the biotransformation of toddalolactone. Toddalolactone (10 μM) was incubated with each recombinant CYP (15 nM) for 60 min at 37 °C and metabolites were identified by HPLC."}, "RLMs": {"system": "RLMs", "experiment": "Prediction of in vivo hepatic clearance in rats from RLM kinetics", "format": "in vitro ADME, rat", "procedure": "(§5) The in vivo hepatic clearances in oxidative metabolism and glucuronidation of toddalolactone were calculated using Equations (4)–(6) (Li et al. [2008]): (4) CLint in vitro=∑i=1nVmax(Mi)/Km(Mi) (5) CLint in vivo=CLint in vitro⋅SF (6) CLH=QH⋅fu⋅CLint in vivo/QH+fu⋅CLint in vivo where SF is the milligrams of microsomal protein per gram of liver multiplied by the grams of liver weight; CLH is hepatic clearance; fu is the unbound fraction in the blood (the value of fu was set to 1 due to the absence of available data for toddalolactone); QH is the blood flow in the liver; and Mi is the metabolite of toddalolacone. The physiological parameters to calculate intrinsic clearance were as follows. The liver weight of dogs, rats and humans were 32, 40 and 25.7 g/kg body weight, respectively; the content of microsomal protein was 77.9, 44.8 and 48.8 mg/g of liver; and the blood flow in the liver was 30.9, 55.2 and 20.7 mL/(min ⋅ kg), respectively (Naritomi et al. [2001])."}, "HLMs": {"system": "HLMs", "experiment": "Prediction of in vivo hepatic clearance in humans from HLM kinetics", "format": "in vitro ADME, human", "procedure": "as §5"}, "CYP1A1": {"system": "CYP1A1", "experiment": "Western blot of CYP1A1 protein expression in HepG2 cells", "format": "cell-based", "conditions": "50 μM, 24 h, vs control (0 μM), p < 0.05", "procedure": "Hep G2 cells were seeded into 100 mm Petri dishes and treated with different concentrations of toddalolactone (0, 10 and 50 µmol/L) for 24 h. Total protein was extracted using RIPA lysis buffer containing proteinase inhibitor (BestBio, Shanghai, China). After the protein concentration was measured using a bicinchoninic acid (BCA) assay kit (Beyotime, Shanghai, China), samples were electrophoretically transferred to polyvinylidene difluoride (PVDF) membranes. After blocking with TTBS (0.5% Tween 20, 10 mM Tris-HCl, pH 7.5, 150 mM NaCl) containing 5% non-fat milk for 1 h at room temperature, the membrane was incubated with antibodies against β-Actin, CYP1A1, and CYP3A5 overnight at 4 °C. Then, membranes were washed with TBS (10 mM Tris-HCl, pH 7.5, 150 mM NaCl) containing 0.05% Tween 20 three times and further incubated with HRP-conjugated secondary antibodies against rabbit (for β-actin, CYP1A1 and CYP3A5) for 1 h at room temperature."}, "[2]": {"experiment": "Metabolic stability assessment in human liver microsomes (CYP and UGT incubation systems)", "format": "in vitro ADME", "conditions": "pH 7.4, HLMs, toddalolactone 20 μM, 0-90 min", "procedure": "as §1, §2, §3, §4"}, "[3]": {"conditions": "CYP incubation system, read-out: half-life value (T1/2)"}, "[4]": {"conditions": "UGT incubation system, read-out: T1/2 value"}}, "data": [{"compound": "COc1cc2oc(=O)ccc2c(OC)c1C[C@@H](O)C(C)(C)O", "note": "[toddalolactone]", "values": [{"measurement": "half-life at 20 μM", "setting": "[1]; [3]", "value": "5.12 ± 0.467", "unit": "h"}, {"measurement": "half-life at 20 μM", "setting": "[1]; [4]", "value": "1.42 ± 0.0717", "unit": "h"}, {"measurement": "catalysis of toddalolactone metabolism by rhCYP isoform", "setting": "other rhCYP isoforms", "value": "very limited or even no catalytic activity"}, {"measurement": "CLH versus hepatic blood flow (QH)", "setting": "RLMs; RLMs", "value": 1.52, "unit": "%"}, {"measurement": "clearance class according to predicted CLH", "setting": "RLMs; rats", "value": "low-clearance (low-clearance drugs (<30% liver blood flow))"}, {"measurement": "in vivo hepatic clearance (CLH)", "setting": "RLMs; rats, predicted from kinetic parameters of P1–P6, fu set to 1", "value": "1.12 mL/(min/kg body weight)"}, {"measurement": "CLH versus hepatic blood flow (QH)", "setting": "HLMs; HLMs", "value": 8.68, "unit": "%"}, {"measurement": "clearance class according to predicted CLH", "setting": "HLMs; humans", "value": "low-clearance (low-clearance drugs (<30% liver blood flow))"}, {"measurement": "in vivo hepatic clearance (CLH)", "setting": "HLMs; humans, predicted from kinetic parameters of P1–P6, fu set to 1", "value": "5.25 mL/(min/kg body weight)"}, {"measurement": "induction of CYP1A1 protein expression higher than that of the control", "setting": "CYP1A1", "value": "approximately 50%"}, {"measurement": "half-life at 20 μM", "setting": "[2]; [3]", "value": 11.2, "unit": "h"}, {"measurement": "half-life at 20 μM", "setting": "[2]; [4]", "value": 1.38, "unit": "h"}]}]}
